“Also recorded” adds a separate entry of the source.
What was measured:
Daoy cells [1] = assay: MTS cellular metabolic viability assay, Daoy; format: cell-based
[2] = tested on: phosphorylated CDK1 at Tyr15; assay: pCDK1; format: cell-based; settings: Daoy, 24 h; for change in pCDK1(Tyr15) level vs DMSO control: 220 nM, n=3; for pCDK1 ELISA dose-response: 1 μM to 62 nM, EC50 values not determinable
recombinant PLK1 kinase = recombinant PLK1 kinase (Homo sapiens, UniProt P53350); assay: PLK1 recombinant kinase LANCE TR-FRET assay; format: biochemical
Daoy cells [3] = settings: for concentration with appreciable cytotoxicity, not before 48 hours: from 48 h
[4] = tested on: phosphorylated CDK1 at Tyr15; settings: read-out: pCDK1 ELISA EC50; Daoy; previously determined; cited from earlier work
WEE1 = settings: read-out: WEE1 IC50; radiolabeled ATP kinase assay; cited from earlier work
[5] = biological target: Src family tyrosine kinase YES1; settings: read-out: YES1 IC50; radiolabeled ATP kinase assay; cited from earlier work
8 other kinases = settings: 1.0 μM, profile of 223 kinases; cited from earlier work
in vitro = settings: human
[6] = tested on: advanced refractory solid tumors; settings: Phase I, single agent; cited from earlier work
ONS-76 cells = assay: MTS cellular metabolic viability assay, ONS-76; format: cell-based; settings: ONS-76, 72 h
recombinant WEE1 = recombinant WEE1 (Homo sapiens, UniProt P30291); assay: WEE1 recombinant kinase TR-FRET; format: binding
Chain of recombinant WEE1 (P30291 whole entry): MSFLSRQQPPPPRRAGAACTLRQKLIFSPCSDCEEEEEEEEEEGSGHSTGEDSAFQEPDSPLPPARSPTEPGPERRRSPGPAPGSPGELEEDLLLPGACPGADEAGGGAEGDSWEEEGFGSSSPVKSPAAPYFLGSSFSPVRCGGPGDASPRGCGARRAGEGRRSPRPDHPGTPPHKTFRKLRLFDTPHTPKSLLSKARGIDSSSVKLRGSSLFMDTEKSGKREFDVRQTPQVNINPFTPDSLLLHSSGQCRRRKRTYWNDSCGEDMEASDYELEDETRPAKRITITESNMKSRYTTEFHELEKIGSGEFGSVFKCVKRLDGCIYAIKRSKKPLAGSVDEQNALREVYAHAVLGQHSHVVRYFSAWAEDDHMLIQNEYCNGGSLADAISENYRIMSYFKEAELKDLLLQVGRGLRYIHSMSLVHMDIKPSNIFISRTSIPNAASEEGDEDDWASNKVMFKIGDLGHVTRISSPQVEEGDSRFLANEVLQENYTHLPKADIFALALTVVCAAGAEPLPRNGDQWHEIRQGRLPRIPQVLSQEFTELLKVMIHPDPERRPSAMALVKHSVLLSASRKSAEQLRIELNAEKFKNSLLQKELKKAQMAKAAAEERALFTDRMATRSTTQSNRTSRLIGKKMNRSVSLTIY

Chain of recombinant PLK1 kinase (P53350 whole entry): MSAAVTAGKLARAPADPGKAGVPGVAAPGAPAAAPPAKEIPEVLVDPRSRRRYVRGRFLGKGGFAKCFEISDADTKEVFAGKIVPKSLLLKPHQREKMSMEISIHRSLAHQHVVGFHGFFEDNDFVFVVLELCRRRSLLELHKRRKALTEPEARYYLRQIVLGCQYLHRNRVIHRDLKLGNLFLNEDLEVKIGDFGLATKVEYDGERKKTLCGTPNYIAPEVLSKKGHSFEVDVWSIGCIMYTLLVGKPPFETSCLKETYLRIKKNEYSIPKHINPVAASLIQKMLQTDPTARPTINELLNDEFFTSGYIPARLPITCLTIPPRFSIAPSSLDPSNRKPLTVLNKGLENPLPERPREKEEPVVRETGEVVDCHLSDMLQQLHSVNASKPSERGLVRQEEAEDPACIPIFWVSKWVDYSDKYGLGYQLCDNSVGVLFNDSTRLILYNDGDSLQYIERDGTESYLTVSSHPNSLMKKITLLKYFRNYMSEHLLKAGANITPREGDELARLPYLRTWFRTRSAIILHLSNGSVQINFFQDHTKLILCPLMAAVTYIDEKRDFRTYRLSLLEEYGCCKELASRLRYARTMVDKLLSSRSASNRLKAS

C=CCn1c(=O)c2cnc(Nc3ccc(N4CCN(C)CC4)cc3)nc2n1-c1cccc(C(C)(C)O)n1 [AZD1775, 2-allyl-1-(6-(2-hydroxypropan-2-yl)pyridin-2-yl)-6-((4-(4-methylpiperazin-1-yl)phenyl)amino)-1,2-dihydro-3H-pyrazolo[3,4-d]pyrimidin-3-one, reference compound]
EC50 (Daoy cells [1]; Homo sapiens, read-out: MTS EC50 used to set the concentration range, Daoy): 150 nM | change in pCDK1(Tyr15) level vs DMSO control [2]: statistically significant decrease in pCDK1 levels | pCDK1 ELISA dose-response [2]: comparable effects on pCDK1 levels | IC50 (recombinant PLK1 kinase): 77.6 ± 9.3 nM | concentration with cytotoxic effects within 24 hours (Daoy cells [3]; 24 h): > 600 nM | concentration with cytotoxic effects after 72 hours (Daoy cells [3]; 72 h): > 75 nM | EC50 [4]: 220 nM | IC50 (WEE1): 5 nM | IC50 [5]: 14 nM | inhibition of 8 other kinases (8 other kinases): > 80% | EC50 at 72 h (in vitro; Daoy cells): 188 ± 26 nM | dose-limiting toxicities [6]: supraventricular tachyarrhythmia and myelosuppression

C=CCn1c(=O)c2cnc(Nc3ccccc3)nc2n1-c1cccc(C(C)(C)O)n1 [Compound 24, 2-allyl-1-(6-(2-hydroxypropan-2-yl)pyridin-2-yl)-6-(phenylamino)-1,2-dihydro-3H-pyrazolo[3,4-d]pyrimidin-3-one]
change in pCDK1(Tyr15) level vs DMSO control [2]: significant increases in pCDK1 levels

C=CCn1c(=O)c2cnc(Nc3cccc(N(C)C)c3)nc2n1-c1cccc(C(C)(C)O)n1 [Compound 25, 2-allyl-6-((3-(dimethylamino)phenyl)amino)-1-(6-(2-hydroxypropan-2-yl)pyridin-2-yl)-1,2-dihydro-3H-pyrazolo[3,4-d]pyrimidin-3-one]
change in pCDK1(Tyr15) level vs DMSO control [2]: significant increases in pCDK1 levels

C=CCn1c(=O)c2cnc(Nc3ccc(CCN(C)C)cc3)nc2n1-c1cccc(C(C)(C)O)n1 [Compound 28, 2-allyl-6-((4-(2-(dimethylamino)ethyl)phenyl)amino)-1-(6-(2-hydroxypropan-2-yl)pyridin-2-yl)-1,2-dihydro-3H-pyrazolo[3,4-d]pyrimidin-3-one]
change in pCDK1(Tyr15) level vs DMSO control [2]: statistically significant decrease in pCDK1 levels | pCDK1 ELISA dose-response [2]: comparable effects on pCDK1 levels | IC50 (recombinant PLK1 kinase): 270 ± 29 nM | concentration with some cytotoxicity within 24 hours (Daoy cells [3]; 24 h): 1200 nM | EC50 at 72 h (in vitro): 651 ± 16 nM

C=CCn1c(=O)c2cnc(Nc3ccc(OCCN(C)C)cc3)nc2n1-c1cccc(C(C)(C)O)n1 [Compound 29, 2-allyl-6-((4-(2-(dimethylamino)ethoxy)phenyl)amino)-1-(6-(2-hydroxypropan-2-yl)pyridin-2-yl)-1,2-dihydro-3H-pyrazolo[3,4-d]pyrimidin-3-one]
MTS % effect (activity) at 600 nM, Daoy (Daoy cells [1]; 72 h, 600 nM): 81% | change in pCDK1(Tyr15) level vs DMSO control [2]: statistically significant decrease in pCDK1 levels | pCDK1 ELISA dose-response [2]: comparable effects on pCDK1 levels | IC50 (recombinant PLK1 kinase): 161 ± 10 nM | CellTox Green dose-response / EC50 determination (Daoy cells [3]; 72 h, up to 2400 nM): Sigmoidal dose-response curves were not obtained; also recorded: did not display sufficient cytotoxicity for EC50 determination | concentration with appreciable cytotoxicity, not before 48 hours (Daoy cells [3]): > 300 nM

C=CCn1c(=O)c2cnc(Nc3ccc(N4CCN(C)CC4)cc3)nc2n1-c1cccc(C(C)(C)O)c1 [Compound 31, 2-allyl-1-(3-(2-hydroxypropan-2-yl)phenyl)-6-((4-(4-methylpiperazin-1-yl)phenyl)amino)-1,2-dihydro-3H-pyrazolo[3,4-d]pyrimidin-3-one]
MTS % effect at 1.16 μM, ONS-76 (ONS-76 cells): 57% | change in pCDK1(Tyr15) level vs DMSO control [2]: did not cause a significant reduction in pCDK1 levels | IC50 (recombinant PLK1 kinase): 394 ± 37 nM | concentration with appreciable cytotoxicity, not before 48 hours (Daoy cells [3]): > 300 nM

C=C(C)c1cccc(-n2[nH]c(=O)c3cnc(Nc4ccc(N5CCN(C)CC5)cc4)nc32)n1 [Compound 34, 6-((4-(4-methylpiperazin-1-yl)phenyl)amino)-1-(6-(prop-1-en-2-yl)pyridin-2-yl)-1,2-dihydro-3H-pyrazolo[3,4-d]pyrimidin-3-one]
IC50 (recombinant WEE1): 190 ± 12 nM
